Data set [1] has as its system WISH. Description: Cytotoxicity against human WISH cells. The format is cell-based.
In data set [2] the test system is Vesicular stomatitis virus. Description: Antiviral activity against vesicular stomatitis virus infected in human WISH cells. The conditions noted are these: for pEC50: read-out: ED50 (the source's name). The format is functional.
A short description of data set [3]: Selectivity index, ratio of toxic concentration for human WISH cells to ED50 for vesicular stomatitis virus infected in human WISH cells. It is filed as toxicity, cell-based. The conditions noted are these: read-out: Selectivity Index.

pEC50: −log10 of the molar value. Active and inactive are the calls of the source. The rule behind the calls is not given here.

Take `CCn1c(=O)c2c(no[n+]2[O-])n([C@@H]2O[C@H](COC(C)=O)[C@H](OC(C)=O)[C@H]2OC(C)=O)c1=O`: the Activity in data set [1] stood at 356 µmol/L. The pEC50 in data set [2] is 2.98.

For the molecule `CCn1c(=O)c2c(no[n+]2[O-])n([C@H]2O[C@H](COC(C)=O)[C@@H](OC(C)=O)[C@@H]2OC(C)=O)c1=O`, the Activity in data set [1] amounted to 1411 µmol/L. Also, the pEC50 in data set [2] is 3.24.

With `CCn1c(=O)c2c(no[n+]2[O-])n([C@@H]2O[C@H](COC(C)=O)[C@@H](OC(C)=O)[C@H](OC(C)=O)[C@H]2OC(C)=O)c1=O`, the Activity in data set [1] is 1345 µmol/L. Besides, the pEC50 in data set [2] is 2.92.

In the case of `CCn1c(=O)c2c(no[n+]2[O-])n(COC(COC(C)=O)COC(C)=O)c1=O`, in data set [1], the Activity is 1475 µmol/L. Also, in data set [2], the pEC50 was 3.19.

Take `CC(=O)OC[C@H]1O[C@H](n2c(=O)n(C)c(=O)c3c2no[n+]3[O-])[C@@H](OC(C)=O)[C@@H]1OC(C)=O`: in data set [1], the Activity turned out to be 378 µmol/L. Besides, the ED50 result in data set [2] is “inactive”.

Molecule `CC(=O)OCCOCn1c(=O)n(C)c(=O)c2c1no[n+]2[O-]` came in with an Activity in data set [1] of 2077 µmol/L. Besides, the pEC50 in data set [2] is 3.19.

In data set [1], `O=c1[nH]c(=O)n(COC(CO)CO)c2no[n+]([O-])c12` came in with an Activity of 2279 µmol/L. Also, the pEC50 in data set [2] is 3.26.

Regarding `O=c1[nH]c(=O)n([C@@H]2O[C@H](COCc3ccccc3)[C@@H](OCc3ccccc3)[C@H]2OCc2ccccc2)c2no[n+]([O-])c12`, the Activity in data set [1] was determined as 650 µmol/L. Also, the pEC50 in data set [2] was 3.13.

Turning to `CCn1c(=O)c2c(no[n+]2[O-])n([C@@H]2O[C@@H](COC(C)=O)[C@H](OC(C)=O)[C@H]2OC(C)=O)c1=O`, the Activity in data set [1] is 20 µmol/L. Also, in data set [2], the ED50 result was “inactive”.

Turning to `CCn1c(=O)c2c(no[n+]2[O-])n(COCCOC(C)=O)c1=O`, the Activity in data set [1] was determined as 408 µmol/L. Further, the ED50 result in data set [2] is “inactive”.

Consider `Cn1c(=O)c2c(no[n+]2[O-])n([C@@H]2O[C@H](COCc3ccccc3)[C@@H](OCc3ccccc3)[C@H]2OCc2ccccc2)c1=O`, for which the Activity in data set [1] amounted to 1055 µmol/L. Besides, in data set [2], the pEC50 is 3.33.

In the case of `CC(=O)OC[C@@H]1O[C@@H](n2c(=O)n(C)c(=O)c3c2no[n+]3[O-])[C@H](OC(C)=O)[C@H]1OC(C)=O`, in data set [1], the Activity stood at 300 µmol/L. Moreover, the pEC50 in data set [2] is 3.87.

Consider `O=c1[nH]c(=O)n(COCCO)c2no[n+]([O-])c12`, for which, in data set [1], the Activity worked out at 2561 µmol/L. Further, the pEC50 in data set [2] was 3.20.

In data set [1], `CC(=O)OC[C@H]1O[C@@H](n2c(=O)[nH]c(=O)c3c2no[n+]3[O-])[C@H](OC(C)=O)[C@@H](OC(C)=O)[C@@H]1OC(C)=O` showed an Activity of 1300 µmol/L. Besides, the ED50 entry in data set [2] was “inactive”.

For the molecule `Cn1c(=O)c2c(no[n+]2[O-])n([C@@H]2O[C@H](COCc3ccccc3)[C@@H](OCc3ccccc3)[C@@H]2F)c1=O`, the Activity in data set [1] amounted to 10 µmol/L. The pEC50 in data set [2] was 2.82.

In data set [1], `CC(=O)OC[C@H]1O[C@H](n2c(=O)[nH]c(=O)c3c2no[n+]3[O-])[C@@H](OC(C)=O)[C@@H]1OC(C)=O` came in with an Activity of 398 µmol/L. For the same molecule, in data set [2], the pEC50 was 3.16.

For `CC(=O)OC[C@H]1O[C@@H](n2c(=O)[nH]c(=O)c3c2no[n+]3[O-])[C@H](OC(C)=O)[C@H]1OC(C)=O`, the Activity in data set [1] turned out to be 387 µmol/L. The ED50 result in data set [2] is “inactive”.

On to `CC(=O)OC[C@H]1O[C@@H](n2c(=O)[nH]c(=O)c3c2no[n+]3[O-])[C@H](OC(C)=O)[C@@H]1OC(C)=O`, for which the Activity in data set [1] is 1459 µmol/L. Further, the pEC50 in data set [2] is 3.46.

In the case of `CC(=O)OCCOCn1c(=O)[nH]c(=O)c2c1no[n+]2[O-]`, the Activity in data set [1] amounted to 2083 µmol/L. In addition, in data set [2], the pEC50 was 3.19.

`CCn1c(=O)c2c(no[n+]2[O-])n([C@@H]2O[C@H](COC(C)=O)[C@@H](OC(C)=O)[C@H]2OC(C)=O)c1=O` registered an Activity in data set [1] of 377 µmol/L. Moreover, the pEC50 in data set [2] is 2.91.

As to `O=c1[nH]c(=O)n([C@@H]2O[C@H](CO)[C@@H](O)[C@H]2O)c2no[n+]([O-])c12`, in data set [1], the Activity was 2095 µmol/L. In addition, the pEC50 in data set [2] is 4.11. In data set [3], the selectivity ratio is 26.9.

In data set [1], `CC(=O)OC[C@H]1O[C@@H](n2c(=O)n(C)c(=O)c3c2no[n+]3[O-])[C@H](OC(C)=O)[C@@H]1OC(C)=O` showed an Activity of 1460 µmol/L. The pEC50 in data set [2] is 3.46.

Turning to `Nc1nc2c(ncn2COCCO)c(=O)[nH]1` [ACYCLOVIR], the Activity in data set [1] turned out to be 3414 µmol/L. Further, in data set [2], the pEC50 was 2.85. The selectivity ratio in data set [3] was 2.4.

As for `O=c1[nH]cnc2c1ncn2[C@H]1CC[C@@H](CO)O1` [DIDANOSINE], the Activity in data set [1] was 2646 µmol/L. Besides, the pEC50 in data set [2] was 3.10. Further, the selectivity ratio in data set [3] is 3.34.

For the molecule `CC(=O)OC[C@H]1O[C@@H](n2c(=O)n(C)c(=O)c3c2no[n+]3[O-])[C@H](OC(C)=O)[C@H]1OC(C)=O`, the Activity in data set [1] amounted to 477 µmol/L. For the same molecule, the ED50 result in data set [2] is “inactive”.

In the case of `CCn1c(=O)c2c(no[n+]2[O-])n([C@@H]2O[C@H](COCc3ccccc3)[C@@H](OCc3ccccc3)[C@H]2OCc2ccccc2)c1=O`, the Activity in data set [1] stood at 1026 µmol/L. In addition, in data set [2], the pEC50 was 3.30.

As to `CC(=O)OC[C@@H]1O[C@@H](n2c(=O)[nH]c(=O)c3c2no[n+]3[O-])[C@H](OC(C)=O)[C@H]1OC(C)=O`, the Activity in data set [1] turned out to be 380 µmol/L. Besides, the pEC50 in data set [2] was 3.81.

The record behind these values is ChEMBL document CHEMBL3351685, “Synthesis and quantitative structure-activity relationship (QSAR) analysis of some novel oxadiazolo[3,4-d]pyrimidine nucleosides derivatives as antiviral agents” (Bioorg Med Chem Lett, 2015).
